Laboratory results taken from patent US12448369B2 (Edgewise Therapeutics, Inc., priority 2023, dated 2025).

How the values were obtained:
[1] = tested on: Rabbit Psoas myofibrils (skeletal myosin ATPase); test: Myofibril ATPase assay, rabbit psoas (skeletal) myofibrils; type: biochemical; details: rabbit psoas myofibrils
Procedure: (§1) Example 1. Myofibril ATPase Assay
(§2) Myofibril ATPase assays are known in the art to be useful in evaluating small molecules for the treatment of HCM and other cardiac indications. Myosin ATPase activity is assessed by using a coupled reaction system, in which ADP generated by the myosin ATPase function is coupled to the disappearance of NADH through the pyruvate kinase/lactate dehydrogenase (PK-LDH) system. ATPase activity produces ADP, which is used as a substrate for PK to produce pyruvate and regenerate ATP. The pyruvate is then used as a substrate by LDH to oxidize NADH to NAD+. The rate of the reaction is monitored through the time-dependent disappearance of NADH using absorbance at 340 nm, which, when the couple system is in stoichiometric excess, is directly correlated to the ATPase activity of the myosin. Inhibition of ATPase activity by the assayed compounds is indicated by a reduced rate of NADH loss, relative to vehicle-treated controls, over the experimental time window. Activation of ATPase activity by the assayed compounds is indicated by an increased rate of NADH loss, relative to vehicle-treated controls, over the experimental time window. Rabbit Psoas, Porcine atria, and Porcine ventricle are the primary sources of myofibril material.
(§3) Materials: The following stock solutions and reagents were used in the Myofibril ATPase Assay:
(§4) Stock Solutions of pCa buffer. Combine PIPES, CaCl2, and EGTA solutions with water. Adjust pH to 7.0 and bring final volume to 100 mL.
(§5) Buffer A & Buffer B. Prepare buffers A and B according to the table below.
(§6) Myofibril ATPase Assay Procedure: BSA, ATP, NADH, PEP, and DTT solutions were thawed at room temperature, then transferred to ice. Pellet-frozen myofibrils were transferred with approximately twice the required volume into a sufficiently large tube and capped. Myofibrils were thawed by rolling in a water bath for approximately 15 min at room temperature and cooled on ice. Buffers A and B were prepared by adjusting volumes as necessary for required number of wells and stored on ice. 0.5 μL of the compounds to be assayed were added into wells. 25 μL of Buffer A was dispensed into the wells, followed by 25 μL of Buffer B. The wells were measured for absorbance at 340 nm, using a kinetic protocol in which the wells are read every 1.5-2 min for 75 min. Assay data analysis was performed using a python script that filtered the raw data to retain those points falling between a starting and ending time and between a maximum and minimum absorbance, then used the filtered time-domain 340 nm absorbance data in each well to calculate a slope via linear regression analysis in units of mAU/min. Compound slopes were normalized between 100% and 0% activity, where 100% represented the slope of wells containing only compound vehicle, and fit to a 4-parameter logistic model. In addition to the fit parameters, the EC25% values were calculated, relative to the 100% normalized value. Additionally, the Y125 values were calculated for compounds that increased myosin ATP-ase activity. Fit parameters, calculated effective concentrations, filtered raw data, and calculated slopes were exported, in addition to compound-specific graphs of normalized ATPase activity versus concentration in μM. Each value reported in Table 5, Table 6, and Table 7 is either a Y75 value or a Y125 value. Values without a double cross sign, ‡, are Y75 values, which reflect the concentration required to reduce myosin ATP-ase activity by 25% (e.g., Y-axis activity value is 75% of initial value), relative to myosin ATP-ase activity in the absence of exogenous compound.
Skeletal Myofibril Isolation:
(§7) Myofibrils from various animals and tissue types were acquired from a variety of sources: rabbit psoas muscle was purchased from Pel-Freez Biologicals (Rogers, AR) and porcine cardiac muscle was purchased from Exemplar Genetics. All myofibrils were prepared using a method based upon those described in Herrmann et al. (1993) and summarized here. […]

[2] = tested on: Porcine atria myofibrils (atrial myosin ATPase); test: Myofibril ATPase assay, porcine atria myofibrils; type: biochemical; details: porcine atria myofibrils
Procedure: as §1, §2, §3, §4, §5, §6, §7

[3] = target: T1, Porcine ventricle myofibrils (ventricular myosin ATPase) (Sus scrofa, UniProt P79293); test: Myofibril ATPase assay, porcine ventricle myofibrils; type: biochemical, porcine (Yucatan minipigs); details: porcine ventricle myofibrils
T1 construct: Myofibrils from porcine cardiac muscle was isolated from the left ventricle of Yucatan minipigs; tissue Exemplar Genetics; host or cells: left ventricle of Yucatan minipigs, myofibrils prepared in house
Procedure: as §1, §2, §3, §4, §5, §6
Cardiac Myofibril Isolation:
Myofibrils from porcine cardiac muscle was isolated from the left ventricle of Yucatan minipigs. Myofibrils were prepared using a method based upon those described in Herrmann et al. (1993) and summarized here. […]

[4] = ‡ Y125 value, not a Y75 value (125% activity relative to no compound)
[5] = Y75 value (75% activity relative to no compound)

T1 sequence (P79293 whole entry): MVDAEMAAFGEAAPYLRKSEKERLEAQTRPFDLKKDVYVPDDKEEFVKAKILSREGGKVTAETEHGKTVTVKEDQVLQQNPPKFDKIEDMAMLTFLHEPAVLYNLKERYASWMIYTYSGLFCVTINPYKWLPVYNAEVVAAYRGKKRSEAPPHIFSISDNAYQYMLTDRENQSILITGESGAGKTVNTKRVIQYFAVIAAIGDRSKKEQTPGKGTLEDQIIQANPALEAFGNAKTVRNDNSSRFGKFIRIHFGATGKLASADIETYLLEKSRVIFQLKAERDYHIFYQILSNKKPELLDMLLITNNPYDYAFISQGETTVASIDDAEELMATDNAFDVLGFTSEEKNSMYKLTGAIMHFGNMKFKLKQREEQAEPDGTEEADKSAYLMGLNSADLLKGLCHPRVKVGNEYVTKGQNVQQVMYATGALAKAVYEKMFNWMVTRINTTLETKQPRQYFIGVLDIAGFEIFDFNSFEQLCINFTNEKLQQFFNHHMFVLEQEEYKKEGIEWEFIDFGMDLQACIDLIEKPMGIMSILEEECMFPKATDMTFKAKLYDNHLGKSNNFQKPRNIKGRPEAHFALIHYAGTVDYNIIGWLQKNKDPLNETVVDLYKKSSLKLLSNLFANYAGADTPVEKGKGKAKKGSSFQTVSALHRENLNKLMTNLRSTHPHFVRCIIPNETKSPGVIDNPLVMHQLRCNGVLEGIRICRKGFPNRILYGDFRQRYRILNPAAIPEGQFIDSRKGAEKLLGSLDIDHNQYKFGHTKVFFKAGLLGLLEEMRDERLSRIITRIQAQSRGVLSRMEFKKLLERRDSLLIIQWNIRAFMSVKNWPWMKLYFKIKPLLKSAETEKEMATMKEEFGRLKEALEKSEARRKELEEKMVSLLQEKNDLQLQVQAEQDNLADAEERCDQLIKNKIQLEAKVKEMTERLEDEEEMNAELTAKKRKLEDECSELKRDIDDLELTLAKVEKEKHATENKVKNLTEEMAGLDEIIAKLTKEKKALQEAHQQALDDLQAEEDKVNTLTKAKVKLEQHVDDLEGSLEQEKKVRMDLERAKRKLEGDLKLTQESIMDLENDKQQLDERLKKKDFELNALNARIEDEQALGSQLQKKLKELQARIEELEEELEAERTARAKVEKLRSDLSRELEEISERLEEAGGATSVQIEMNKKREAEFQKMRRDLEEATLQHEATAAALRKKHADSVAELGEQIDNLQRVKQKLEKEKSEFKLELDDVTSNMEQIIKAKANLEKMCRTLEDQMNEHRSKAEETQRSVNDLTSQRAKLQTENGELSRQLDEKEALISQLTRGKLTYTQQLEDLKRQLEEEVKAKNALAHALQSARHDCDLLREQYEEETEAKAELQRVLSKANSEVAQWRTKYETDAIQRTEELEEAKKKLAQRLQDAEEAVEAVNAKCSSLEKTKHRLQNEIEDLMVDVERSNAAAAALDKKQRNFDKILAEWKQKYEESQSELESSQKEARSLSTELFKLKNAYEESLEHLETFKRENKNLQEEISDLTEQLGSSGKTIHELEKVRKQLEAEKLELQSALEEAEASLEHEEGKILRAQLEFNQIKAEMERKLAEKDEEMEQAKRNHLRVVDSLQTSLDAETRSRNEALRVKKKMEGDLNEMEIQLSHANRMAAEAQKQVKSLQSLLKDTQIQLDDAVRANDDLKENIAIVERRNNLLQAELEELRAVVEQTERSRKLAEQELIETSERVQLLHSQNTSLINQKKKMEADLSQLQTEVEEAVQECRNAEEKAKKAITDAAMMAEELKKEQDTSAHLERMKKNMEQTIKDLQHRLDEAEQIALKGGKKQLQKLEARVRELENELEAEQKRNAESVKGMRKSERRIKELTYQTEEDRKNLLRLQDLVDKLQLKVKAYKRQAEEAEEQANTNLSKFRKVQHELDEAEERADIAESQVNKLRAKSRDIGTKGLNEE

| Compound | Skeletal EC25 ([1]; Y75 value (no ‡ mark)) | Atrial EC25 ([2]; Y75 value (no ‡ mark)) | Skeletal EC25 ([1]; Y75 value) | Atrial EC25 [2, 5] | Ventricular EC25 ([3]; Y75 value) | Ventricular EC25 ([3]; Y75 value (no ‡ mark)) | further results |
| --- | --- | --- | --- | --- | --- | --- | --- |
| Cc1ccc2[nH]c(=O)c(CC(=O)N[C@@H](C)c3ncc(C#N)cn3)cc2c1F (single isomer, unassigned) [compound 2014] | 100.00 µM | 100.00 µM |  |  |  |  | Ventricular EC25 [3, 4]: 100.00‡ μM |
| Cc1c(CC(=O)N[C@H](CO)c2ccc(F)cc2F)c(=O)[nH]c2ccnc(C#N)c12 [compound 229] |  |  | 4.20 µM | 8.21 µM | 34.95 µM |  |  |
| Cc1c(CC(=O)N[C@@H](C)c2ccc(F)cc2F)c(=O)[nH]c2ccnc(OCC(F)F)c12 [compound 380] |  |  | 0.01 µM | 0.06 µM | 0.77 µM |  |  |
| Cc1c(C2(C(=O)N[C@H](C)c3nccc(C#N)n3)CC2)c(=O)[nH]c2ccc(F)c(F)c12 (single isomer, unassigned) [compound 2509] |  |  |  |  |  |  | Skeletal EC25 [1, 4]: 94.41‡ μM; Atrial EC25 [2, 4]: 100.00‡ μM; Ventricular EC25 [3, 4]: 77.92‡ μM |
| Cc1nccc2[nH]c(=O)c(CC(=O)N[C@@H](CO)c3ccc(F)cc3F)c(C)c12 (single isomer, unassigned) [compound 396] |  |  | 0.55 µM | 1.18 µM | 3.32 µM |  |  |
| C[C@H](NC(=O)Cc1c(C2CC2)c2c(F)c(F)ccc2[nH]c1=O)c1ccc(C#N)nn1 (single isomer, unassigned) [compound 2066] | 0.15 µM | 1.06 µM |  |  |  | 7.88 µM |  |
| Cc1c(CC(=O)N[C@H](CO)c2ccc(C#N)cc2F)c(=O)[nH]c2ccnc(C(F)(F)F)c12 (single isomer, unassigned) [compound 224] |  |  | 0.36 µM | 6.57 µM | 100.00 µM |  |  |
| C[C@H](NC(=O)[C@@H](C)c1cc2c(Br)nccc2[nH]c1=O)c1ccc(F)cc1F (single isomer, unassigned) [compound 344] |  |  | 0.23 µM | 9.52 µM | 90.74 µM |  |  |
| Cc1c(CC(=O)N[C@@H](C)c2ccc(F)cc2F)c(=O)[nH]c2ccc(OC(F)(F)F)nc12 [compound 359] |  |  | 0.04 µM | 0.11 µM | 100.00 µM |  |  |
| Cc1c(CC(=O)N[C@H](C)c2ncc(C#N)cn2)c(=O)[nH]c2cccc(F)c12 (single isomer, unassigned) [compound 2041] | 100.00 µM | 1.18 µM |  |  |  | 1.50 µM |  |
| Cc1cc(C#N)nnc1[C@@H](C)NC(=O)Cc1c(C)c2cc(F)ccc2[nH]c1=O [compound 1058] | 29.21 µM | 1.92 µM |  |  |  | 6.86 µM |  |
| Cc1c(CC(=O)N[C@@H](C)c2ccc(F)cn2)c(=O)[nH]c2cccc(F)c12 [compound 44] | 0.05 µM | 0.21 µM |  |  |  | 1.97 µM |  |
| Cc1c(C(F)(F)C(=O)N[C@H]2CCc3cc(C#N)cnc32)c(=O)[nH]c2ccc(F)cc12 (single isomer, unassigned) [compound 2516] | 0.67 µM | 0.79 µM |  |  |  | 100.00 µM |  |
| C[C@H](NC(=O)C(F)(F)c1cc2cc(F)ccc2[nH]c1=O)c1ccc(F)cc1F [compound 119] | 0.11 µM | 0.26 µM |  |  |  | 1.96 µM |  |
